Source: patent publication US9265773B2, “Tetracyclic heterocycle compounds and methods of use thereof for the treatment of viral diseases” (priority 2011, dated 2016)

Legend:
HCV replicon genotype 1b = experiment: microbe, parasite or virus in culture; assay type: cell-based; settings: genotype 1b replicon cells, incubated 96 hours, NS3/4A ELISA readout
HCV replicon genotype 1a = experiment: microbe, parasite or virus in culture; assay type: cell-based; settings: genotype 1a replicon cells, incubated 96 hours, NS3/4A ELISA readout

CNC(=O)c1c(-c2ccc(F)cc2)oc2cc(N(C)S(C)(=O)=O)c(-c3ccc4c(c3)-c3cc5ccccc5n3CC(NCCN(C)C)CO4)cc12 (stereo not drawn) [Compound 80, 5-(7-((2-(dimethylamino)ethyl)amino)-7,8-dihydro-6H-benzo[2,3][1,5]oxazocino[5,4-a]indol-2-yl)-2-(4-fluorophenyl)-N-methyl-6-(N-methylmethylsulfonamido)benzofuran-3-carboxamide]
IC50 (HCV replicon genotype 1b; Hepatitis C virus, 96 h): 15 nM
IC50 (HCV replicon genotype 1a; Hepatitis C virus, 96 h): 18 nM

CNC(=O)c1c(-c2ccc(F)cc2)oc2cc(N(C)S(C)(=O)=O)c(-c3ccc4c(n3)-c3cc5c(F)cccc5n3C(C)(CO)O4)cc12 (stereo not drawn) [Compound 91]
IC50 (HCV replicon genotype 1b; Hepatitis C virus, 96 h): 7.4 nM
IC50 (HCV replicon genotype 1a; Hepatitis C virus, 96 h): 3.3 nM

CNC(=O)c1c(-c2ccc(F)cc2)oc2cc(N(CCN3CCOCC3)S(C)(=O)=O)c(-c3ccc4c(n3)-c3cc5c(F)cccc5n3CO4)cc12 [Compound 211, 5-(11-fluoro-6H-pyrido[2′,3′:5,6][1,3]oxazino[3,4-a]indol-2-yl)-2-(4-fluorophenyl)-N-methyl-6-(N-(2-morpholinoethyl)methylsulfonamido)benzofuran-3-carboxamide]
IC50 (HCV replicon genotype 1b; Hepatitis C virus, 96 h): 12 nM
IC50 (HCV replicon genotype 1a; Hepatitis C virus, 96 h): 6.5 nM

CNC(=O)c1c(-c2ccc(F)cc2)oc2cc(N(C)S(C)(=O)=O)c(-c3cc4c(cn3)OCn3c-4nc4cccnc43)cc12 [Compound 138]
IC50 (HCV replicon genotype 1b; Hepatitis C virus, 96 h): 19 nM
IC50 (HCV replicon genotype 1a; Hepatitis C virus, 96 h): 62 nM

CNC(=O)c1c(-c2ccc(F)cc2)oc2cc(N(C)S(C)(=O)=O)c(-c3ccc4c(n3)-c3[nH]c5cccc(F)c5c3C(c3cccs3)O4)cc12 (stereo not drawn) [Compound 66, 5-(7-fluoro-6-(thiophen-2-yl)-6,11-dihydropyrido[2′,3′:5,6]pyrano[4,3-b]indol-2-yl)-2-(4-fluorophenyl)-N-methyl-6-(N-methylmethylsulfonamido)benzofuran-3-carboxamide]
IC50 (HCV replicon genotype 1b; Hepatitis C virus, 96 h): 59 nM
IC50 (HCV replicon genotype 1a; Hepatitis C virus, 96 h): 49 nM

CNC(=O)c1c(-c2ccc(F)cc2)oc2cc(N3CCNC3=O)c(-c3ccc4c(n3)-c3cc5c(F)cccc5n3CO4)cc12 [Compound 177, 5-(11-fluoro-6H-pyrido[2′,3′:5,6][1,3]oxazino[3,4-a]indol-2-yl)-2-(4-fluorophenyl)-N-methyl-6-(2-oxoimidazohdin-1-yl)benzofuran-3-carboxamide]
IC50 (HCV replicon genotype 1b; Hepatitis C virus, 96 h): 4 nM
IC50 (HCV replicon genotype 1a; Hepatitis C virus, 96 h): 4.6 nM

CNC(=O)c1c(-c2ccc(F)cc2)oc2cc(N3CCOC3=O)c(-c3ncc4c(n3)-c3cc5c(F)cccc5n3CO4)cc12 [Compound 173, 5-(11-fluoro-6H-pyrimido[4′,3′:5,6][1,3]oxazino[3,4-a]indol-2-yl)-2-(4-fluorophenyl)-N-methyl-6-(2-oxooxazolidin-3-yl)benzofuran-3-carboxamide]
IC50 (HCV replicon genotype 1b; Hepatitis C virus, 96 h): 2.1 nM
IC50 (HCV replicon genotype 1a; Hepatitis C virus, 96 h): 8.4 nM

CNC(=O)c1c(-c2ccc(F)cc2)oc2cc(N(C)S(C)(=O)=O)c(-c3ccc4c(n3)-c3cc5c(F)cccc5n3C(CN(C)C)O4)cc12 (stereo not drawn) [Compound 122, 5-(6-((dimethylamino)methyl)-11-fluoro-6H-pyrido[2′,3′:5,6][1,3]oxazino[3,4-a]indol-2-yl)-2-(4-fluorophenyl)-N-methyl-6-(N-methylmethylsulfonamido)benzofuran-3-carboxamide]
IC50 (HCV replicon genotype 1b): 5.2 nM
IC50 (HCV replicon genotype 1a): 5.1 nM

CNC(=O)c1c(-c2ccc(F)cc2)oc2cc(N(C)S(C)(=O)=O)c(-c3ccc4c(n3)-c3nc5cccc(F)c5n3CO4)cc12 [Compound 140]
IC50 (HCV replicon genotype 1b; Hepatitis C virus, 96 h): 5.9 nM
IC50 (HCV replicon genotype 1a; Hepatitis C virus, 96 h): 7.9 nM

CNC(=O)c1c(-c2ccc(F)cc2)oc2cc(N(C)S(C)(=O)=O)c(-c3ccc4c(n3)-c3cc5c(CN)cccc5n3CO4)cc12 [Compound 68]
IC50 (HCV replicon genotype 1b; Hepatitis C virus, 96 h): 19 nM
IC50 (HCV replicon genotype 1a; Hepatitis C virus, 96 h): 60 nM

CNC(=O)c1c(-c2ccc(F)cc2)oc2cc(N(C)S(C)(=O)=O)c(-c3ccc4c(n3)-c3cc5c(CN(C)C)cccc5n3CO4)cc12 [Compound 70]
IC50 (HCV replicon genotype 1b; Hepatitis C virus, 96 h): 18 nM
IC50 (HCV replicon genotype 1a; Hepatitis C virus, 96 h): 71 nM

CNC(=O)c1c(-c2ccc(F)cc2)oc2cc(N(C)S(C)(=O)=O)c(-c3ccc4c(n3)-c3cc5c(C(N)=O)cccc5n3CO4)cc12 [Compound 73, 2-(2-(4-fluorophenyl)-3-(methylcarbamoyl)-6-(N-methylmethylsulfonamido)benzofuran-5-yl)-6H-pyrido[2′,3′:5,6][1,3]oxazino[3,4-a]indole-11-carboxamide]
IC50 (HCV replicon genotype 1b; Hepatitis C virus, 96 h): 36 nM
IC50 (HCV replicon genotype 1a; Hepatitis C virus, 96 h): 625 nM

CNC(=O)c1c(-c2ccc(F)cc2)oc2cc(N(C)S(C)(=O)=O)c(-c3ccc4c(c3)-c3[nH]c5ccccc5c3C(c3cccnc3)O4)cc12 (stereo not drawn) [Compound 62]
IC50 (HCV replicon genotype 1b; Hepatitis C virus, 96 h): 3.4 nM
IC50 (HCV replicon genotype 1a; Hepatitis C virus, 96 h): 12 nM

CNC(=O)c1c(-c2ccc(F)cc2)oc2cc(N)c(-c3ccc4c(n3)-c3cc5c(F)cccc5n3CO4)cc12 [Compound 163, 6-amino-5-(11-fluoro-6H-pyrido[2′,3′:5,6][1,3]oxazino[3,4-a]indol-2-yl)-2-(4-fluorophenyl)-N-methylbenzofuran-3-carboxamide]
IC50 (HCV replicon genotype 1b; Hepatitis C virus, 96 h): 2.2 nM
IC50 (HCV replicon genotype 1a; Hepatitis C virus, 96 h): 1.1 nM

CNC(=O)c1c(-c2ccc(F)cc2)oc2cc(N(C)S(C)(=O)=O)c(-c3ccc4c(c3)-c3cc5ccccc5n3CCO4)cc12 [Compound 42, 5-(6,7-dihydrobenzo[6,7][1,4]oxazepino[4,5-a]indol-2-yl)-2-(4-fluorophenyl)-N-methyl-6-(N-methylmethylsulfonamido)benzofuran-3-carboxamide]
IC50 (HCV replicon genotype 1b; Hepatitis C virus, 96 h): 4.5 nM
IC50 (HCV replicon genotype 1a; Hepatitis C virus, 96 h): 3.1 nM

CNC(=O)c1c(-c2ccc(F)cc2)oc2cc(N(C)S(C)(=O)=O)c(-c3ccc4c(n3)-c3cc5c(F)cccc5n3C(CN3CCOCC3)O4)cc12 (stereo not drawn) [Compound 123, 5-(11-fluoro-6-(morpholinomethyl)-6H-pyrido[2′,3′:5,6][1,3]oxazino[3,4-a]indol-2-yl)-2-(4-fluorophenyl)-N-methyl-6-(N-methylmethylsulfonamido)benzofuran-3-carboxamide]
IC50 (HCV replicon genotype 1b; Hepatitis C virus, 96 h): 3.6 nM
IC50 (HCV replicon genotype 1a; Hepatitis C virus, 96 h): 3.4 nM

CNC(=O)c1c(-c2ccc(F)cc2)oc2cc(N(C)S(C)(=O)=O)c(-c3ncc4c(n3)-c3cc5c(F)cccc5n3CCCO4)cc12 [Compound 40]
IC50 (HCV replicon genotype 1b; Hepatitis C virus, 96 h): 2.2 nM
IC50 (HCV replicon genotype 1a; Hepatitis C virus, 96 h): 2 nM

CNC(=O)c1c(-c2ccc(F)cc2)oc2cc(N(C)S(C)(=O)=O)c(-c3ccc4c(n3)-c3cc5c(F)cccc5n3C(CCO)O4)cc12 (stereo not drawn) [Compound 99, 5-(11-fluoro-6-(2-hydroxyethyl)-6H-pyrido[2′,3′:5,6][1,3]oxazino[3,4-a]indol-2-yl)-2-(4-fluorophenyl)-N-methyl-6-(N-methylmethylsulfonamido)benzofuran-3-carboxamide]
IC50 (HCV replicon genotype 1b; Hepatitis C virus, 96 h): 4.6 nM
IC50 (HCV replicon genotype 1a; Hepatitis C virus, 96 h): 1.9 nM

CNC(=O)c1c(-c2ccc(F)cc2)oc2cc(N(C)S(C)(=O)=O)c(-c3ccc4c(n3)-c3cc5c(F)cccc5n3C(CNCCOC)O4)cc12 (stereo not drawn) [Compound 120]
IC50 (HCV replicon genotype 1b; Hepatitis C virus, 96 h): 2.1 nM
IC50 (HCV replicon genotype 1a; Hepatitis C virus, 96 h): 4.3 nM

CNC(=O)c1c(-c2ccc(F)cc2)oc2cc(N3CCOC3=O)c(-c3ccc4c(n3)-c3cc5c(F)cccc5n3CO4)cc12 [Compound 172, 5-(11-fluoro-6H-pyrido[2′,3′:5,6][1,3]oxazino[3,4-a]indol-2-yl)-2-(4-fluorophenyl)-N-methyl-6-(2-oxooxazolidin-3-yl)benzofuran-3-carboxamide]
IC50 (HCV replicon genotype 1b; Hepatitis C virus, 96 h): 2.1 nM
IC50 (HCV replicon genotype 1a; Hepatitis C virus, 96 h): 2.2 nM

CNC(=O)c1c(-c2ccc(F)cc2)oc2cc(N(C)S(C)(=O)=O)c(-c3ccc4c(n3)-c3cc5c(F)cccc5n3C(CN(C)C)O4)cc12 (stereo not drawn) [Compound 121, 5-(6-((dimethylamino)methyl)-11-fluoro-6H-pyrido[2′,3′:5,6][1,3]oxazino[3,4-a]indol-2-yl)-2-(4-fluorophenyl)-N-methyl-6-(N-methylmethylsulfonamido)benzofuran-3-carboxamide]
IC50 (HCV replicon genotype 1b; Hepatitis C virus, 96 h): 7.5 nM
IC50 (HCV replicon genotype 1a; Hepatitis C virus, 96 h): 3 nM

CNC(=O)c1c(-c2ccc(F)cc2)oc2cc(N(CCF)S(C)(=O)=O)c(-c3ncc4c(n3)-c3cc5c(F)cccc5n3CO4)cc12 [Compound 193]
IC50 (HCV replicon genotype 1b; Hepatitis C virus, 96 h): 1.7 nM
IC50 (HCV replicon genotype 1a; Hepatitis C virus, 96 h): 1.3 nM

CNC(=O)c1c(-c2ccc(F)cc2)oc2cc(N(CCF)S(C)(=O)=O)c(-c3ccc4c(n3)-c3cc5ccccc5n3CO4)cc12 [Compound 189]
IC50 (HCV replicon genotype 1b; Hepatitis C virus, 96 h): 4.4 nM
IC50 (HCV replicon genotype 1a; Hepatitis C virus, 96 h): 2.9 nM

CNC(=O)c1c(-c2ccc(F)cc2)oc2cc(N(C)S(C)(=O)=O)c(-c3ncc4c(n3)-c3cc5c(F)cccc5n3CO4)cc12 [Compound 5]
IC50 (HCV replicon genotype 1b; Hepatitis C virus, 96 h): 2 nM
IC50 (HCV replicon genotype 1a; Hepatitis C virus, 96 h): 1 nM

CNC(=O)c1c(-c2ccc(F)cc2)oc2ccc(-c3ccc4c(n3)-c3cc5c(F)cccc5n3CO4)cc12 [Compound 162, 5-(11-fluoro-6H-pyrido[2′,3′:5,6][1,3]oxazino[3,4-a]indol-2-yl)-2-(4-fluorophenyl)-N-methylbenzofuran-3-carboxamide]
IC50 (HCV replicon genotype 1b; Hepatitis C virus, 96 h): 18 nM
IC50 (HCV replicon genotype 1a; Hepatitis C virus, 96 h): 29 nM

CNC(=O)c1c(-c2ccc(F)cc2)oc2cc(N3CC(=O)NC3=O)c(-c3ccc4c(n3)-c3cc5c(F)cccc5n3CO4)cc12 [Compound 179, 6-(2,4-dioxoimidazolidin-1-yl)-5-(11-fluoro-6H-pyrido[2′,3′:5,6][1,3]oxazino[3,4-a]indol-2-yl)-2-(4-fluorophenyl)-N-methylbenzofuran-3-carboxamide]
IC50 (HCV replicon genotype 1b; Hepatitis C virus, 96 h): 7.4 nM
IC50 (HCV replicon genotype 1a; Hepatitis C virus, 96 h): 32 nM

CNC(=O)c1c(-c2ccc(F)cc2)oc2cc(N(C)S(C)(=O)=O)c(-c3ccc4c(c3)-c3cc5ccccc5n3CC(C)(O)CO4)cc12 (stereo not drawn) [Compound 78, 2-(4-fluorophenyl)-5-(7-hydroxy-7-methyl-7,8-dihydro-6H-benzo[2,3][1,5]oxazocino[5,4-a]indol-2-yl)-N-methyl-6-(N-methylmethylsulfonamido)benzofuran-3-carboxamide]
IC50 (HCV replicon genotype 1b; Hepatitis C virus, 96 h): 3.5 nM
IC50 (HCV replicon genotype 1a; Hepatitis C virus, 96 h): 5.7 nM

CNC(=O)c1c(-c2ccc(F)cc2)oc2cc(N(C)S(C)(=O)=O)c(-c3ccc4c(n3)-c3cc5c(F)cccc5n3C(CNS(C)(=O)=O)O4)cc12 (stereo not drawn) [Compound 128, 5-(11-fluoro-6-(methylsulfonamidomethyl)-6H-pyrido[2′,3′:5,6][1,3]oxazino[3,4-a]indol-2-yl)-2-(4-fluorophenyl)-N-methyl-6-(N-methylmethylsulfonamido)benzofuran-3-carboxamide]
IC50 (HCV replicon genotype 1b; Hepatitis C virus, 96 h): 0.9 nM
IC50 (HCV replicon genotype 1a; Hepatitis C virus, 96 h): 2.6 nM

CNC(=O)c1c(-c2ccc(F)cc2)oc2cc(N(CC3CC3)S(C)(=O)=O)c(-c3ccc4c(n3)-c3cc5c(F)cccc5n3CO4)cc12 [Compound 200]
IC50 (HCV replicon genotype 1b; Hepatitis C virus, 96 h): 22 nM
IC50 (HCV replicon genotype 1a; Hepatitis C virus, 96 h): 14 nM

CNC(=O)c1c(-c2ccc(F)cc2)oc2cc(N(CCCF)S(C)(=O)=O)c(-c3ncc4c(n3)-c3cc5ccccc5n3CO4)cc12 [Compound 197]
IC50 (HCV replicon genotype 1b; Hepatitis C virus, 96 h): 4.4 nM
IC50 (HCV replicon genotype 1a; Hepatitis C virus, 96 h): 2.6 nM
